This note sets out measurements from patent publication US20240398785A1, “SMALL MOLECULE DRUGS FOR THE INDUCTION OF TRAINED IMMUNITY” (THE UNIVERSITY OF CHICAGO, priority 2023, published 2024).

Data set [1] relates to BMDMs. Briefly: A1155463 in-vitro training assay in BMDMs. The settings on record: 24 hours after challenge, vs PBS-trained. Type of data set: cell-based, mouse. Here is the method:
FIGS. 5A-5F: Testing A1155463 as an inducer of trained immunity (TI) in vitro. FIG. 5A is a schematic diagram for in-vitro TI assay in bone marrow-derived macrophages (BMDMs). FIG. 5B is a graph showing interleukin-6 (IL-6) levels (expressed in picograms per milliliter (pg/ml) 24 hours (h) post PAM3-CSK4 (Pam3) challenge in an in-vitro TI assay in BMDMs trained with either phosphate buffered saline (PBS) (black) or A1155463 (pink); n=15. FIG. 5C is a graph showing tumor necrosis factor alpha (TNF-α) levels (pg/ml) 24 h post Pam3 challenge in an in-vitro TI assay in BMDMs trained with either PBS (black) or A1155463 (pink); n=10. FIG. 5D is a graph showing IL-6 levels (pg/ml) 24 h post-stimulation with PBS (black) or A1155463 (pink); n=3. FIG. 5E is a graph showing the fold change in TNF-α following Pam3 challenge in BMDMs trained with A1155463 pre-treated with PBS, MTA (histone methyl transferase inhibitor), EGCG (histone acetyltransferase inhibitor) or 2-DG (glycolysis inhibitor); n=15, significance compared with PBS control of each inhibitor. FIG. 5F is a graph of IL-6 levels (pg/ml) 24 h post Pam3 challenge in an in-vitro TI assay in BMDMs trained with either PBS (black) or A1155463 (pink) pretreated with varying concentrations of 2-DG; n=5.
A1155463 is a commercially available inhibitor of the B-cell lymphoma-extra large (Bcl-xL) protein. […]

Data set [2] has as its system BMDMs. Briefly: A1155463 immunogenicity, BMDM supernatant after 24 hours. As to conditions: no challenge. Type of data set: cell-based, mouse. As to the method: FIG. 7: Testing immunogenicity of A115463 on BMDMs: BMDMs (100,000 cells per well) were incubated with PBS (red), different doses of A1155463 (blue 10 uM, green 1 uM or purple 0.1 uM) or different concentrations of DMSO, reflective of the A1155463 doses for 24 h.
(§1) Bcl-xL is an anti-apoptotic protein with some role in mediating inflammatory reactions.^32,33 Most documented inducers of trained immunity elicit an initial immune response upon administration. However, A1155463 has never been reported elicit inflammatory responses in vitro. To test if A1155463 elicited an enhanced innate response on its own in vitro, supernatant from BMDMs cultured with A1155463 for 24 hours was analyzed. […] The non-immunogenicity of A1155463 was validated using an NF-kb reporter cell line. […] Taken together, this evidence supports that A1155463 is a non-immunogenic trained immunity inducing molecule.

Data set [3] concerns mice. Briefly: A1155463 in-vivo training, LPS challenge. On the set-up: species or system mouse. Here is the method: FIGS. 6A-6H: in-vivo A1155463 trained immunity (TI) assays. FIG. 6A is a schematic showing the in-vivo training schedule. Mice were dosed intraperitoneally (i.p.) with training material (PBS or A1155463 at 15 milligrams per kilogram body weight (mg/kg)) daily for six days. […] FIG. 6B is a graph showing the interleukin-6 (IL-6) and tumor necrosis factor-alpha (TNF-α) levels (expressed as picograms per milliliter (pg/ml) 1 hour (h) following LPS challenge with either PBS (black) or A1155463 (pink); n=5. FIG. 6C is a graph showing the percentage (%) of small peritoneal macrophages (SPMs) from the peritoneal cavity of PBS (black) or A1155463 trained (pink) mice 2 h post LPS challenge on day 7. FIG. 6D is a graph showing the IL-6 levels (pg/ml) from bone-marrow cells isolated on day 7 challenged ex-vivo with LPS from either PBS (black) or A1155463 (pink) trained mice; n=3. FIG. 6E is a schematic showing the in-vivo training schedule for B16.F10 tumor challenge. FIG. 6F is a graph showing the tumor volumes (in cubic millimeters (mm3)) of mice trained with PBS (black) or A1155463 (pink) mice; n=8. FIG. 6G is a schematic of the in-vivo training schedule for B16.F10 tumor challenge with checkpoint therapy (CPT) administered on day 14 and 17. FIG. 6H is a graph showing tumor volumes (mm^3) of mice trained with PBS (black; n=4) or A1155463 (pink; n=5).
FIG. 10: Ruling out innate immune priming: Mice were trained with PBS or vehicle (black) or A1155463 (pink) according to schedule illustrated in FIG. 6A.
Since A1155463 induced training effects in-vitro, its ability to induce training in mice was studied. […] The vehicle control group was also dosed similarly to account for solvent effects. To rule out the impact of innate immune priming due to the high dosage, systemic cytokines were checked for 24 hours after the last dosing on day 6. […] […].
Apart from increased systemic cytokines, recruitment of monocyte-derived small peritoneal macrophages (SPMs) is another hallmark of enhanced training. […] Central effects of trained immunity occur at the bone-marrow progenitor favoring myelopoiesis.^39 To test if A1155463 induced training effects in bone-marrow cells, cells were isolated from the bone-marrow seven days following the training schedule described in FIG. 6A. Bone-marrow cells from PBS or A1155463 trained cells were challenged with 5 ng/mL of LPS and the supernatant was analyzed 24 hours later. […].

Data set [4] deals with RAW-Blue cells. Briefly: RAW-Blue NF-kb reporter assay. As to conditions: after 18 hours. The format is cell-based. Here is the method: FIG. 8: RAW-Blue assay: RAW-Blue cells (100,000 cells per well) were incubated with PBS (black), A1155463 (pink) or 100 ng/mL LPS (green) for 18 h.
as §1
Background: In a reporter assay the amount or activity of a reporter protein is the signal.

Where [5] appears, read: 15 mg/kg i.p. daily for 6 days, LPS 5 μg per mouse, after 1 hour.

`CN(C)CC#Cc1ccc(OCCCc2sc(N3CCc4cccc(C(=O)Nc5nc6ccccc6s5)c4C3)nc2C(=O)O)c(F)c1` [A1155463, 2-(8-(benzo[d]thiazol-2-ylcarbamoyl)-3,4-dihydroisoquinolin-2(1H)-yl)-5-(3-(4-(3-(dimethyl-amino)prop-1-yn-1-yl)-2-fluorophenoxy)propyl)thiozole-4-carboxylic acid]: in data set [1], the “increase in IL-6 following Pam3 challenge” value is recorded as “approximately 1.2 fold” and the “increase in TNF-α following Pam3 challenge” value is on record as “approximately 1.2 fold”. Moreover, the “IL-6 levels vs PBS-treated BMDMs” value in data set [2] is “No significant difference”. Moreover, in data set [3] (15 mg/kg i.p. daily for 6 days, 24 hours after the last dosing), the “systemic IL-6 or TNF-α without challenge (priming)” value was “No systemic IL-6 or TNF-α was observed”. Besides, in data set [3] (setting [5]), the “increase in IL-6 following LPS challenge” value worked out at 2.3 fold and the “increase in TNF-α following LPS challenge” value was 1.97 fold. Moreover, the “percentage of SPMs” value in data set [3] (two hours post-LPS challenge) was “non-significant increase”. Further, in data set [4], the “NF-kb reporter signal vs PBS-treated cells” value is on record as “No significant difference”.
